Reference: paper PMC5515969, “Effects of 31 FDA approved small-molecule kinase inhibitors on isolated rat liver mitochondria” (Archives of Toxicology, 2016)
Like-named read-outs stand apart in the source and are kept apart here.

Assays:
[1] = tested on: isolated rat liver mitochondria; experiment: Mitochondrial inner membrane potential (MMP), Rhodamine 123; assay type: biochemical; conditions: difference in signal between KI and DMSO treated samples at the end of experiments
From the text: Fig. 3 KI effects on mitochondrial inner membrane potential (MMP). […] In a, c, data are means and standard derivations from three separate experiments. *p < 0.05 as compared to DMSO-treated samples at the end of experiments. In b, data are means of two independent experiments

[2] = tested on: isolated rat liver mitochondria; conditions: positive control alamethicin treated samples
RCC I = RCC I activity in submitochondrial particles; assay type: biochemical, rat; design: key to RCC I at 10XCmax / RCC I at 100XCmax / RCC I at 50XCmax / RCC I at 30XCmax / RCC I at 20XCmax: activity relative to DMSO-treated controls (control set as 1 = 100%); conditions: 10XCmax
Summary of the method: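 Activity relative to DMSO (set as 1) after 15-min exposure of submitochondrial particles (1 mg/ml) to compound. RCC I is defined as rotenone-sensitive activity and RCC II is followed at 600 nm over 6 min.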

[3] = tested on: isolated rat liver mitochondria; experiment: Mitochondrial oxygen consumption (glutamate/malate or succinate driven, state 4 and state 3); assay type: biochemical; conditions: for Glutamate/malate driven respiration State 3 / Glutamate/malate driven respiration State 4 / Succinate-driven respiration State 3 / Succinate-driven respiration State 4: oxygen consumption, DMSO-treated = 1; for State 3 respiration driven by succinate at 10XCmax: key: 0 indicates that the drug had no effects (negative); for State 3 respiration driven by succinate at 1XCmax: key: 0 indicates that the drug had no effects (negative)
Summary of the method: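 Rat liver mitochondria (1 mg/ml protein) exposed 5 min to kinase inhibitors in 0.1% DMSO, then O2 consumption measured by Clark-type electrode with glutamate/malate or succinate (state 4), ADP added after 3 min (state 3). Rates normalized to 0.1% DMSO controls set to 1.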

[4] = tested on: isolated rat liver mitochondria; experiment: Mitochondrial ROS production (CM-H2DCFDA); conditions: DMSO treated samples set as 1
RCC IV = RCC IV activity in submitochondrial particles; assay type: biochemical, rat; design: key to RCC IV at 50XCmax / RCC IV at 100XCmax: activity relative to DMSO-treated controls (control set as 1 = 100%); conditions: 50XCmax, in %
Summary of the method: (§1)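 First, submitochondrial particles (1 mg/ml) are incubated with inhibitor for 15 min. Next, complex activities are followed spectrophotometrically, with RCC I taken as the difference between buffers lacking and containing rotenone. Finally, activities are expressed relative to DMSO controls set at 1.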

[5] = cited from earlier work
RCC III = RCC III activity in submitochondrial particles; assay type: biochemical, rat; design: key to RCC III at 100XCmax: activity relative to DMSO-treated controls (control set as 1 = 100%); conditions: 100XCmax
Summary of the method: as §1

RCC II = target: T1, RCC II (Rattus norvegicus, UniProt P21913+Q641Z9+Q6PCT8+Q920L2); experiment: RCC II activity in submitochondrial particles; assay type: biochemical; design: key: activity relative to DMSO-treated controls (control set as 1 = 100%)
T1 construct: Submitochondrial particles were prepared by subjecting the intact mitochondria to three successive freeze–thaw cycles; from tissue; host or cells: rat liver mitochondria, used as submitochondrial particles
T1 sequence (Q920L2 35-656): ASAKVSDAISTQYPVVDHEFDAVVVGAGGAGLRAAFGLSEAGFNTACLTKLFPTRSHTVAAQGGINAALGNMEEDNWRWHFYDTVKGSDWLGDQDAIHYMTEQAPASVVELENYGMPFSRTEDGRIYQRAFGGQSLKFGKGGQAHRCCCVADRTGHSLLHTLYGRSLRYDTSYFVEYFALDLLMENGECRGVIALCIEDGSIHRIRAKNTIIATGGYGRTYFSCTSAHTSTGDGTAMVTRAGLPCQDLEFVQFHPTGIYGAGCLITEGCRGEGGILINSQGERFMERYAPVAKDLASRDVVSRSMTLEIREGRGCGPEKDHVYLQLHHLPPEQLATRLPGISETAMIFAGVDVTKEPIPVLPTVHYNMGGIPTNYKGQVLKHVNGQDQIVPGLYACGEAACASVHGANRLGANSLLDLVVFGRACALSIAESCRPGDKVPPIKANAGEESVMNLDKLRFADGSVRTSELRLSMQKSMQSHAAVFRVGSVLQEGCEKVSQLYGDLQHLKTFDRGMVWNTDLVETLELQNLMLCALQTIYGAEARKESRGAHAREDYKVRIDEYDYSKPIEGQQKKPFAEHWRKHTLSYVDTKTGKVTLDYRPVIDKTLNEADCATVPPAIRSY
T1 sequence (P21913 31-282): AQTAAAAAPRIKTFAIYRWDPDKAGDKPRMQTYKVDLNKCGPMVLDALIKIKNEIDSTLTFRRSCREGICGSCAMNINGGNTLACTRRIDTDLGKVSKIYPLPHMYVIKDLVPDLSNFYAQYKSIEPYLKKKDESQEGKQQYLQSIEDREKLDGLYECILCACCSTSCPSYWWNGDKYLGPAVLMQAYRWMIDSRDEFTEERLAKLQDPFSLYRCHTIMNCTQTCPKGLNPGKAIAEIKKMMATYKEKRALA
T1 sequence (Q641Z9 1-169): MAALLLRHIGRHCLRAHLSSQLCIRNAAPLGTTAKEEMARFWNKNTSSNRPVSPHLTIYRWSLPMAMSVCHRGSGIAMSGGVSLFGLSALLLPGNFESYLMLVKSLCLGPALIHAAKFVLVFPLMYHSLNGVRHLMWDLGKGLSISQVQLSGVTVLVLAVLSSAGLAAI
T1 sequence (Q6PCT8 57-159): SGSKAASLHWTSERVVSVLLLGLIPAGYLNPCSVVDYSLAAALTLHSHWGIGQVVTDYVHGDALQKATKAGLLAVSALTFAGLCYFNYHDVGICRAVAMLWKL
Summary of the method: as §1

[6] = 1XCmax, DMSO treated samples set as 1
[7] = 2.5XCmax, DMSO treated samples set as 1
[8] = 5XCmax, DMSO treated samples set as 1
[9] = 10XCmax, DMSO treated samples set as 1
[10] = 20XCmax, DMSO treated samples set as 1
[11] = 30XCmax, DMSO treated samples set as 1
[12] = 50XCmax, DMSO treated samples set as 1
[13] = 100XCmax, DMSO treated samples set as 1
[14] = human therapeutic Cmax at FDA recommended dosages, ref product labeling and drug approval packages at the official FDA website
[15] = relative to DMSO treated samples

COc1cc2nccc(Oc3ccc(NC(=O)NC4CC4)c(Cl)c3)c2cc1C(N)=O [Lenvatinib]
0.96 ± 0.03: Succinate-driven respiration State 4 ([3]; 50-fold Cmax)
0.68 µM: Cmax [5, 14] | Cmax ([5]; read-out: Cmax at µM, human therapeutic maximal blood concentration, ref product labeling)
0.99 ± 0.03: Succinate-driven respiration State 3 ([3]; 100-fold Cmax)
0.74 ± 0.04: Glutamate/malate driven respiration State 3 ([3]; 100-fold Cmax)
0.74±0.04: State 3 respiration driven by glutamate/malate at 100XCmax [3, 13]
0.76 ± 0.05: Glutamate/malate driven respiration State 3 ([3]; 30-fold Cmax)
0: MMP measured by Rhodamine 123 at 1XCmax [1] | MMP measured by Rhodamine 123 at 2.5XCmax [1] | MMP measured by Rhodamine 123 at 5XCmax [1] | MMP measured by Rhodamine 123 at 10XCmax [1] | MMP measured by Rhodamine 123 at 20XCmax [1] | MMP measured by Rhodamine 123 at 30XCmax [1] | MMP measured by Rhodamine 123 at 50XCmax [1] | MMP measured by Rhodamine 123 at 100XCmax [1] | Cytochrome c release 1XCmax [2] | Cytochrome c release 2.5XCmax [2] | Cytochrome c release 5XCmax [2] | Cytochrome c release 10XCmax [2] | Cytochrome c release 20XCmax [2] | Cytochrome c release 30XCmax [2] | Cytochrome c release 50XCmax [2] | Cytochrome c release 100XCmax [2] | RCC I at 10XCmax (RCC I; DMSO treated samples set as 1) | State 3 respiration driven by succinate at 1XCmax [3, 6] | State 4 respiration driven by succinate at 1XCmax [3, 6] | State 3 respiration driven by succinate at 2.5XCmax [3, 7] | State 4 respiration driven by succinate at 2.5XCmax [3, 7] | State 3 respiration driven by succinate at 5XCmax [3, 8] | State 4 respiration driven by succinate at 5XCmax [3, 8] | State 3 respiration driven by succinate at 10XCmax [3, 9] | State 4 respiration driven by succinate at 10XCmax [3, 9] | State 3 respiration driven by succinate at 20XCmax [3, 10] | State 4 respiration driven by succinate at 20XCmax [3, 10] | State 3 respiration driven by succinate at 30XCmax [3, 11] | State 4 respiration driven by succinate at 30XCmax [3, 11] | State 3 respiration driven by succinate at 50XCmax [3, 12] | State 4 respiration driven by succinate at 50XCmax [3, 12] | State 3 respiration driven by succinate at 100XCmax [3, 13] | State 4 respiration driven by succinate at 100XCmax [3, 13] | ROS measured by CM-H2DCFDA at 1XCmax [4] | ROS measured by CM-H2DCFDA at 2.5XCmax [4] | ROS measured by CM-H2DCFDA at 5XCmax [4] | ROS measured by CM-H2DCFDA at 10XCmax [4] | ROS measured by CM-H2DCFDA at 20XCmax [4] | ROS measured by CM-H2DCFDA at 30XCmax [4] | ROS measured by CM-H2DCFDA at 50XCmax [4] | ROS measured by CM-H2DCFDA at 100XCmax [4] | RCC IV at 50XCmax (RCC IV; DMSO treated samples set as 1) | RCC III at 100XCmax (RCC III) | RCC II at 1.0XCmax (RCC II; DMSO treated samples set as 1) | RCC II at 2.5XCmax (RCC II; DMSO treated samples set as 1) | RCC II at 5XCmax (RCC II; DMSO treated samples set as 1) | RCC II at 10XCmax (RCC II; DMSO treated samples set as 1) | RCC II at 20XCmax (RCC II; DMSO treated samples set as 1) | RCC II at 30XCmax (RCC II; DMSO treated samples set as 1) | RCC II at 50XCmax (RCC II; DMSO treated samples set as 1) | RCC II at 100XCmax (RCC II; DMSO treated samples set as 1)
0.86 ± 0.04: Succinate-driven respiration State 3 ([3]; 30-fold Cmax)
0.291 µg/mL: Cmax (ng or µg/ml) ([5]; human therapeutic maximal blood concentration, ref product labeling)
1.07 ± 0.03: Succinate-driven respiration State 4 ([3]; 100-fold Cmax)
0.93 ± 0.01: Glutamate/malate driven respiration State 4 ([3]; 50-fold Cmax)
0.70±0.02: State 3 respiration driven by glutamate/malate at 50XCmax [3, 12]
0.94 ± 0.01: Succinate-driven respiration State 4 ([3]; 30-fold Cmax)
0.95 ± 0.06: Glutamate/malate driven respiration State 4 ([3]; 30-fold Cmax)
30 fold Cmax: lowest concentration significantly affecting mitochondrial oxygen consumption ([3]; tested at 1 to 100-fold Cmax)
0.90 ± 0.01: Succinate-driven respiration State 3 ([3]; 50-fold Cmax)
1.06 ± 0.06: Glutamate/malate driven respiration State 4 ([3]; 100-fold Cmax)
0.70 ± 0.02: Glutamate/malate driven respiration State 3 ([3]; 50-fold Cmax)
0.76±0.05: State 3 respiration driven by glutamate/malate at 30XCmax [3, 11]

CCCS(=O)(=O)Nc1ccc(F)c(C(=O)c2c[nH]c3ncc(-c4ccc(Cl)cc4)cc23)c1F [Vemurafenib]
0.13 µM: Cmax [5, 14]
0: MMP measured by Rhodamine 123 at 1XCmax [1] | MMP measured by Rhodamine 123 at 2.5XCmax [1] | MMP measured by Rhodamine 123 at 5XCmax [1] | MMP measured by Rhodamine 123 at 10XCmax [1] | MMP measured by Rhodamine 123 at 20XCmax [1] | MMP measured by Rhodamine 123 at 30XCmax [1] | MMP measured by Rhodamine 123 at 50XCmax [1] | MMP measured by Rhodamine 123 at 100XCmax [1] | Cytochrome c release 1XCmax [2] | Cytochrome c release 2.5XCmax [2] | Cytochrome c release 5XCmax [2] | Cytochrome c release 10XCmax [2] | Cytochrome c release 20XCmax [2] | Cytochrome c release 30XCmax [2] | Cytochrome c release 50XCmax [2] | Cytochrome c release 100XCmax [2] | RCC I at 10XCmax (RCC I; [15]) | State 3 respiration driven by glutamate/malate at 1XCmax [3, 6] | State 3 respiration driven by succinate at 1XCmax [3, 6] | State 4 respiration driven by glutamate/malate at 1XCmax [3, 6] | State 4 respiration driven by succinate at 1XCmax [3, 6] | State 3 respiration driven by glutamate/malate at 2.5XCmax [3, 7] | State 3 respiration driven by succinate at 2.5XCmax [3, 7] | State 4 respiration driven by glutamate/malate at 2.5XCmax [3, 7] | State 4 respiration driven by succinate at 2.5XCmax [3, 7] | State 3 respiration driven by glutamate/malate at 5XCmax [3, 8] | State 3 respiration driven by succinate at 5XCmax [3, 8] | State 4 respiration driven by glutamate/malate at 5XCmax [3, 8] | State 4 respiration driven by succinate at 5XCmax [3, 8] | State 3 respiration driven by glutamate/malate at 10XCmax [3, 9] | State 3 respiration driven by succinate at 10XCmax [3, 9] | State 4 respiration driven by glutamate/malate at 10XCmax [3, 9] | State 4 respiration driven by succinate at 10XCmax [3, 9] | State 3 respiration driven by glutamate/malate at 20XCmax [3, 10] | State 3 respiration driven by succinate at 20XCmax [3, 10] | State 4 respiration driven by glutamate/malate at 20XCmax [3, 10] | State 4 respiration driven by succinate at 20XCmax [3, 10] | State 3 respiration driven by glutamate/malate at 30XCmax [3, 11] | State 3 respiration driven by succinate at 30XCmax [3, 11] | State 4 respiration driven by glutamate/malate at 30XCmax [3, 11] | State 4 respiration driven by succinate at 30XCmax [3, 11] | State 3 respiration driven by glutamate/malate at 50XCmax [3, 12] | State 3 respiration driven by succinate at 50XCmax [3, 12] | State 4 respiration driven by glutamate/malate at 50XCmax [3, 12] | State 4 respiration driven by succinate at 50XCmax [3, 12] | State 3 respiration driven by glutamate/malate at 100XCmax [3, 13] | State 3 respiration driven by succinate at 100XCmax [3, 13] | State 4 respiration driven by glutamate/malate at 100XCmax [3, 13] | State 4 respiration driven by succinate at 100XCmax [3, 13] | ROS measured by CM-H2DCFDA at 1XCmax [4] | ROS measured by CM-H2DCFDA at 2.5XCmax [4] | ROS measured by CM-H2DCFDA at 5XCmax [4] | ROS measured by CM-H2DCFDA at 10XCmax [4] | ROS measured by CM-H2DCFDA at 20XCmax [4] | ROS measured by CM-H2DCFDA at 30XCmax [4] | ROS measured by CM-H2DCFDA at 50XCmax [4] | ROS measured by CM-H2DCFDA at 100XCmax [4] | RCC IV at 50XCmax (RCC IV; [15]) | RCC II at 1.0XCmax (RCC II; [15]) | RCC II at 2.5XCmax (RCC II; [15]) | RCC II at 5XCmax (RCC II; [15]) | RCC II at 10XCmax (RCC II; [15]) | RCC II at 20XCmax (RCC II; [15]) | RCC II at 30XCmax (RCC II; [15]) | RCC II at 50XCmax (RCC II; [15]) | RCC II at 100XCmax (RCC II; [15])
